According to US20260028365A1 (BIOGEN MA INC., priority 2022, published 2026):

Tests used:
[1] = molecular target: Tyk2 (Homo sapiens (Human), UniProt P29597); assay: pSTAT4 Cell Assay (MSD, NK92 cells); assay type: cell-based; conditions: MSD
[2] = molecular target: JAK2 (Homo sapiens (Human), UniProt O60674); assay: pSTAT5 Cell Assay (MSD, TF1 cells); assay type: cell-based; conditions: MSD
Description: Compounds of the disclosure were assessed for their ability to inhibit the JAK2 kinase activity on STAT5 utilizing an MSD-platform plate-based assay format. TF1 cells natively expressing STAT5 and JAK2 were serum-starved to reduce background phosphorylation levels, then cells were treated with compounds of disclosure for 1 hour with a 10-point four-fold dilution series starting at 10 μM. Cells were then stimulated with 30 ng/mL IL-3 for 15 minutes. Cells were then lysed and pSTAT5 levels were quantitated using an MSD plate-based assay with anti-STAT5 antibodies. The data were normalized and the percent activity versus log concentration of compound was fitted with a 4-parameter logistic model to generate a curve and an IC50 value.

[3] = molecular target: JH2 domain of human Tyk2 (Homo sapiens (Human), UniProt P29597); assay: JH2 Biochemical Assay (TR-FRET probe displacement); assay type: binding
[4] = molecular target: JAK1 (Homo sapiens (Human), UniProt P23458); assay: pSTAT3 Cell Assay (MSD, TF1 cells); assay type: cell-based; conditions: MSD
Description: The inhibitory potency of compounds of the disclosure against the JAK1 kinase activity on STAT3 was evaluated using an MSD-platform plate-based assay format. TF1 cells natively expressing STAT3 and JAK1 were serum-starved to reduce background phosphorylation levels, then cells were treated with compounds of the disclosure for 1 hour with a 10-point four-fold dilution series starting at 10 μM. Cells were then stimulated with 30 ng/mL interleukin 6 (IL-6) for 15 minutes. Cells were lysed and pSTAT3 levels were quantitated using an MSD plate-based assay with anti-STAT3 antibodies. The data were normalized and the percent activity versus log concentration of compound was fitted with a 4-parameter logistic model to generate IC50 curves.

[5] = JH2 domain of human Tyk2, TR-FRET probe displacement
[6] = TR-FRET probe displacement, JH2 domain of human Tyk2

Chain of JAK1 (P23458 whole entry): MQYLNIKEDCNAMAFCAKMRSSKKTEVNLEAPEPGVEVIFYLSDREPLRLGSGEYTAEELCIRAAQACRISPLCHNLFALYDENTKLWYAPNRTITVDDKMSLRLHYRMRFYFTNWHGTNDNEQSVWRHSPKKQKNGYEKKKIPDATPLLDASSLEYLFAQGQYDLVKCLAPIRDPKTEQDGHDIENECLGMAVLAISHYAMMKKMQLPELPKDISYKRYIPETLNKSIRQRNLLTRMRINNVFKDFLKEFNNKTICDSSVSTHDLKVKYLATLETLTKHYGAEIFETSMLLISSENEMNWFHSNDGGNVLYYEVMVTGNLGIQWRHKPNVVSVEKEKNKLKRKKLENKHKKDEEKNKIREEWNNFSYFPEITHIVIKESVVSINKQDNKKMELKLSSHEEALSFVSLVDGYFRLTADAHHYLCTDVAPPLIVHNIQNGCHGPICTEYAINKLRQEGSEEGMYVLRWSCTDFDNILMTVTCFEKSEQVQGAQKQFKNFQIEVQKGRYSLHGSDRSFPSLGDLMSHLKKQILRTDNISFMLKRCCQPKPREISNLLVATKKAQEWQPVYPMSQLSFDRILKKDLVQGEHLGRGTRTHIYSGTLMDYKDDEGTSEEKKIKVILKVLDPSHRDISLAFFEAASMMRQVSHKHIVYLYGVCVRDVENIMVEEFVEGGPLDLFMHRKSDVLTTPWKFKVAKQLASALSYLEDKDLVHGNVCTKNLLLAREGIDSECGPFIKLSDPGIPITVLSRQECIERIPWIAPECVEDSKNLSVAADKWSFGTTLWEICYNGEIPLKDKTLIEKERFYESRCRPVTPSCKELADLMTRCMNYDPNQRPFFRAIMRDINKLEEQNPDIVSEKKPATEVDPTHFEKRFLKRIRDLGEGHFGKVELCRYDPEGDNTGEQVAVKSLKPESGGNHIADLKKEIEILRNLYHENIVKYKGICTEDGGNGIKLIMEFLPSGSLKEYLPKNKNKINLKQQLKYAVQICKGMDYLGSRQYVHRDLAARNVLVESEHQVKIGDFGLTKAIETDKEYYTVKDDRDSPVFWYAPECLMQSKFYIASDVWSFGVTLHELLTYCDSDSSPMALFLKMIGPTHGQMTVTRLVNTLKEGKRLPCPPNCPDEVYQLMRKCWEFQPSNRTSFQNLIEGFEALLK
Chain of JAK2 (O60674 whole entry): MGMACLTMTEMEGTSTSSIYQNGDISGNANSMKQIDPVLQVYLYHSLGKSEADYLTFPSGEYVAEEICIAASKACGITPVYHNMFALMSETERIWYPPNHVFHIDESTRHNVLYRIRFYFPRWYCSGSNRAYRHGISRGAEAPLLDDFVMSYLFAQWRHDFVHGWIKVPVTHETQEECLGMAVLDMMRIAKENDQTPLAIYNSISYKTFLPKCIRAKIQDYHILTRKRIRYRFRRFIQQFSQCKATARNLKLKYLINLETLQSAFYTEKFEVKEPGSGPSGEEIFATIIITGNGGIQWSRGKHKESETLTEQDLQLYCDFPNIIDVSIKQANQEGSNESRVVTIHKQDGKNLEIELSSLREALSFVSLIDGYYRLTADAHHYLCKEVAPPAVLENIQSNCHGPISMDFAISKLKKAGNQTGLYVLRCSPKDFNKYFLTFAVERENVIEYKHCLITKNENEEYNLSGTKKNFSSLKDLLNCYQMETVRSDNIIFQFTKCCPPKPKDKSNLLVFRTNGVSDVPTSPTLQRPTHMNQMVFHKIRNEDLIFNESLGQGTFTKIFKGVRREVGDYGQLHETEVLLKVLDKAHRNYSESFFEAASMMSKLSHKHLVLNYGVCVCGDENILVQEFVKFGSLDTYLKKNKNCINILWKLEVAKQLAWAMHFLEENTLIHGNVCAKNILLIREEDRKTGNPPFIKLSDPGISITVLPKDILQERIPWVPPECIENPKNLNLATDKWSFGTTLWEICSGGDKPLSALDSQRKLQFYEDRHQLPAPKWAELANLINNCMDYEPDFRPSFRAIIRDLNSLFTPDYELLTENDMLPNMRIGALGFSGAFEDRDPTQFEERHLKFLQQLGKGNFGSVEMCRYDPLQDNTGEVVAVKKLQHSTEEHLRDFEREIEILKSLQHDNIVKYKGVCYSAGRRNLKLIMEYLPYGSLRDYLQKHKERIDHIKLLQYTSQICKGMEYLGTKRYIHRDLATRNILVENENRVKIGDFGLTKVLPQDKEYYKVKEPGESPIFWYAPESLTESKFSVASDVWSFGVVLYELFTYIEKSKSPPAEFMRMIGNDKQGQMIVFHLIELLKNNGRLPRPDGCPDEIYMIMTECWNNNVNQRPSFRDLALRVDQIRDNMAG
Chain of Tyk2 (P29597 whole entry): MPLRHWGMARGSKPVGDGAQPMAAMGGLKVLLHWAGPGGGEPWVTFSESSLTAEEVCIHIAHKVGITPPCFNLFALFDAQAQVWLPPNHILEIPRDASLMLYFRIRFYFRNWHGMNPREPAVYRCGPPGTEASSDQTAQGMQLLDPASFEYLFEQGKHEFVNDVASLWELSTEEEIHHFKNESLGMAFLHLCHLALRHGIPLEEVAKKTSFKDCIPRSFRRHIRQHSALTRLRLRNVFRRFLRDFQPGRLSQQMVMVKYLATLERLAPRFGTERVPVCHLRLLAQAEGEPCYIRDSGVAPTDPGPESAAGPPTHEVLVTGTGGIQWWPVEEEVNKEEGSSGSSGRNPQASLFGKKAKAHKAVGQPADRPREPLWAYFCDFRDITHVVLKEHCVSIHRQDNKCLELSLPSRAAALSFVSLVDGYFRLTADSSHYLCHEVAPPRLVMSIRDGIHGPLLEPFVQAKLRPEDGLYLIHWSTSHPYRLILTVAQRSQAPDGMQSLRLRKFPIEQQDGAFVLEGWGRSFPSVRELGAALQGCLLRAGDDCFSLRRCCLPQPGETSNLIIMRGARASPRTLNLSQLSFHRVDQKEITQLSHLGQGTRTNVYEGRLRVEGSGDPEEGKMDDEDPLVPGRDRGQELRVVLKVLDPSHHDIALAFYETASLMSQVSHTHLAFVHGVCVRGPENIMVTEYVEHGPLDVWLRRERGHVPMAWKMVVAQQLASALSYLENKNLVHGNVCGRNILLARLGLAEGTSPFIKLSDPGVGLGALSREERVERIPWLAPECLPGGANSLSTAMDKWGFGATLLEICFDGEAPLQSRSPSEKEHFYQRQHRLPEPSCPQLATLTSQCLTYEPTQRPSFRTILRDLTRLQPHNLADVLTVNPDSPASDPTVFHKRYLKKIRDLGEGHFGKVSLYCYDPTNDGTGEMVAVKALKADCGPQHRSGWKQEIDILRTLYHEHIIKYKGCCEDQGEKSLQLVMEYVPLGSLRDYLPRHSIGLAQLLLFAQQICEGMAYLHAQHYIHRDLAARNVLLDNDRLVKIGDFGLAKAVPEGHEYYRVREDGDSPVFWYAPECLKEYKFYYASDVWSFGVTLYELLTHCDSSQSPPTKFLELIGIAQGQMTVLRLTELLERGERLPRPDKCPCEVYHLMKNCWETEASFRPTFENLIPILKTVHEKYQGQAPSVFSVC
Chain of JH2 domain of human Tyk2 (P29597 575-876): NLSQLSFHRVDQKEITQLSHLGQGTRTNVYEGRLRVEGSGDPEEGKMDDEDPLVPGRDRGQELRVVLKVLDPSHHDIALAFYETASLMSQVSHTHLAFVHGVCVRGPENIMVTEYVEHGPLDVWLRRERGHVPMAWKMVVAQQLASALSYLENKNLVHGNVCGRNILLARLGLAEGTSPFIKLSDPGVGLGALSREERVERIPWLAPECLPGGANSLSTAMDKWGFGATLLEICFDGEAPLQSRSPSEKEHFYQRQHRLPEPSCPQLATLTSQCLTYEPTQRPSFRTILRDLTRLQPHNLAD

CC(=O)Nc1cc(Nc2cc(C)nc(C(C)(F)F)n2)c(OC[C@H]2C[C@H]2F)cn1 (racemic) [Example 425, Cis-rac-N-(4-((2-(1,1-difluoroethyl)-6-methylpyrimidin-4-yl)amino)-5-((2-fluorocyclopropyl)methoxy)pyridin-2-yl)acetamide]
IC50 [1]: ≤ 10 nM | IC50 ([2]; IL-3 stimulated): ≥ 1000 nM | IC50 [3, 5]: ≤ 10 nM | IC50 ([4]; IL-6 stimulated): ≥ 1000 nM

CC(=O)Nc1cc(Nc2cc(C)nc(C(C)(F)F)n2)c(OC[C@H]2C[C@@H]2F)cn1 (racemic) [Example 426, Trans-rac-N-(4-((2-(1,1-difluoroethyl)-6-methylpyrimidin-4-yl)amino)-5-((2-fluorocyclopropyl)methoxy)pyridin-2-yl)acetamide]
IC50 [1]: ≤ 10 nM | IC50 ([2]; IL-3 stimulated): ≥ 1000 nM | IC50 [3, 5]: ≤ 10 nM | IC50 ([4]; IL-6 stimulated): ≥ 1000 nM

CC(=O)Nc1cc(Nc2cc(C)nc(C(C)(F)F)n2)c(OC[C@H]2CCCO2)cn1 (single isomer, unassigned) [Example 294, (R)-N-(4-((2-(1,1-difluoroethyl)-6-methylpyrimidin-4-yl)amino)-5-((tetrahydrofuran-2-yl)methoxy)pyridin-2-yl)acetamide or (S)-N-(4-((2-(1,1-difluoroethyl)-6-methylpyrimidin-4-yl)amino)-5-((tetrahydrofuran-2-yl)methoxy)pyridin-2-yl)acetamide]
IC50 [1]: ≤ 10 nM | IC50 ([2]; IL-3 stimulation): ≥ 1000 nM | IC50 [3, 6]: ≤ 10 nM | IC50 ([4]; IL-6 stimulation): ≥ 1000 nM

CC(=O)Nc1cc(Nc2cc(OC3CC3)nc(C(C)(F)F)n2)c(OC[C@@H]2COCCO2)cn1 (single isomer, unassigned) [Example 453, (S)-N-(5-((1,4-dioxan-2-yl)methoxy)-4-((6-cyclopropoxy-2-(1,1-difluoroethyl)pyrimidin-4-yl)amino)pyridin-2-yl)acetamide or (R)-N-(5-((1,4-dioxan-2-yl)methoxy)-4-((6-cyclopropoxy-2-(1,1-difluoroethyl)pyrimidin-4-yl)amino)pyridin-2-yl)acetamide]
IC50 [1]: ≤ 10 nM | IC50 ([2]; IL-3 stimulated): ≥ 1000 nM | IC50 [3, 5]: ≤ 10 nM | IC50 ([4]; IL-6 stimulated): ≥ 1000 nM

CC(=O)Nc1cc(Nc2cc(OC3CC3)nc(C(C)(F)F)n2)c(OC[C@H]2COCCO2)cn1 (single isomer, unassigned) [Example 454, (R)-N-(5-((1,4-dioxan-2-yl)methoxy)-4-((6-cyclopropoxy-2-(1,1-difluoroethyl)pyrimidin-4-yl)amino)pyridin-2-yl)acetamide or (S)-N-(5-((1,4-dioxan-2-yl)methoxy)-4-((6-cyclopropoxy-2-(1,1-difluoroethyl)pyrimidin-4-yl)amino)pyridin-2-yl)acetamide]
IC50 [1]: ≤ 10 nM | IC50 ([2]; IL-3 stimulated): ≥ 1000 nM | IC50 [3, 5]: ≤ 10 nM | IC50 ([4]; IL-6 stimulated): ≥ 1000 nM

CCOc1cnc(NC(C)=O)cc1Nc1cccc(C(C)(F)F)n1 [Example 1, N-(4-((6-(1,1-difluoroethyl)pyridin-2-yl)amino)-5-ethoxypyridin-2-yl)acetamide]
IC50 [1]: ≤ 10 nM | IC50 ([2]; IL-3 stimulation): ≥ 1000 nM | IC50 [3, 6]: ≤ 10 nM | IC50 ([4]; IL-6 stimulation): ≥ 1000 nM

CCOc1cnc(NC(C)=O)cc1Nc1nccc(C(C)(F)F)n1 [Example 3, N-(4-((4-(1,1-difluoroethyl)pyrimidin-2-yl)amino)-5-ethoxypyridin-2-yl)acetamide]
IC50 [1]: 10 to 100 nM | IC50 ([2]; IL-3 stimulation): ≥ 1000 nM | IC50 [3, 6]: ≤ 10 nM | IC50 ([4]; IL-6 stimulation): ≥ 1000 nM

CCOc1cnc(NC(C)=O)cc1Nc1ccnc(C(C)(F)F)n1 [Example 4, N-(4-((2-(1,1-difluoroethyl)pyrimidin-4-yl)amino)-5-ethoxypyridin-2-yl)acetamide]
IC50 [1]: 10 to 100 nM | IC50 ([2]; IL-3 stimulation): ≥ 1000 nM | IC50 [3, 6]: ≤ 10 nM | IC50 ([4]; IL-6 stimulation): ≥ 1000 nM

CCOc1cnc(NC(C)=O)cc1Nc1cc(OC)nc(C(C)(F)F)n1 [Example 5, N-(4-((2-(1,1-difluoroethyl)-6-methoxypyrimidin-4-yl)amino)-5-ethoxypyridin-2-yl)acetamide]
IC50 [1]: 10 to 100 nM | IC50 ([2]; IL-3 stimulation): ≥ 1000 nM | IC50 [3, 6]: ≤ 10 nM | IC50 ([4]; IL-6 stimulation): ≥ 1000 nM

CCOc1cnc(NC(C)=O)cc1Nc1cc(C)nc(C(C)(F)F)n1 [Example 10, N-(4-((2-(1,1-difluoroethyl)-6-methylpyrimidin-4-yl)amino)-5-ethoxypyridin-2-yl)acetamide]
IC50 [1]: 10 to 100 nM | IC50 ([2]; IL-3 stimulation): ≥ 1000 nM | IC50 [3, 6]: ≤ 10 nM | IC50 ([4]; IL-6 stimulation): ≥ 1000 nM

CC(=O)Nc1cc(Nc2cc(C)nc(C(C)(F)F)n2)c(OCC2CC2)cn1 [Example 11, N-(5-(cyclopropylmethoxy)-4-((2-(1,1-difluoroethyl)-6-methylpyrimidin-4-yl)amino)pyridin-2-yl)acetamide]
IC50 [1]: 10 to 100 nM | IC50 ([2]; IL-3 stimulation): ≥ 1000 nM | IC50 [3, 6]: ≤ 10 nM | IC50 ([4]; IL-6 stimulation): ≥ 1000 nM

CCOc1cnc(NC(C)=O)cc1Nc1cc(CC)nc(C(C)(F)F)n1 [Example 12, N-(4-((2-(1,1-difluoroethyl)-6-ethylpyrimidin-4-yl)amino)-5-ethoxypyridin-2-yl)acetamide]
IC50 [1]: 10 to 100 nM | IC50 ([2]; IL-3 stimulation): ≥ 1000 nM | IC50 [3, 6]: ≤ 10 nM | IC50 ([4]; IL-6 stimulation): ≥ 1000 nM

CCOc1cnc(NC(C)=O)cc1Nc1cc(C2CC2)nc(C(C)(F)F)n1 [Example 13, N-(4-((6-cyclopropyl-2-(1,1-difluoroethyl)pyrimidin-4-yl)amino)-5-ethoxypyridin-2-yl)acetamide]
IC50 [1]: 10 to 100 nM | IC50 ([2]; IL-3 stimulation): ≥ 1000 nM | IC50 [3, 6]: ≤ 10 nM | IC50 ([4]; IL-6 stimulation): ≥ 1000 nM

CCOc1cnc(NC(C)=O)cc1Nc1cc(O[C@H]2C[C@H](OC)C2)cc(C(C)(F)F)n1 [Example 14, N-(4-((6-(1,1-difluoroethyl)-4-((1r,3r)-3-methoxycyclobutoxy)pyridin-2-yl)amino)-5-ethoxypyridin-2-yl)acetamide]
IC50 [1]: 10 to 100 nM | IC50 ([2]; IL-3 stimulation): ≥ 1000 nM | IC50 [3, 6]: ≤ 10 nM | IC50 ([4]; IL-6 stimulation): ≥ 1000 nM

CCOc1cnc(NC(C)=O)cc1Nc1cc(O[C@H]2C[C@H](OC)C2)nc(C(C)(F)F)n1 [Example 16, N-(4-((2-(1,1-difluoroethyl)-6-((1r,3r)-3-methoxycyclobutoxy)pyrimidin-4-yl)amino)-5-ethoxypyridin-2-yl)acetamide]
IC50 [1]: ≤ 10 nM | IC50 ([2]; IL-3 stimulation): ≥ 1000 nM | IC50 [3, 6]: ≤ 10 nM | IC50 ([4]; IL-6 stimulation): ≥ 1000 nM

COc1cnc(NC(C)=O)cc1Nc1cc(C2CC2)nc(C(C)(F)F)n1 [Example 17, N-(4-((6-cyclopropyl-2-(1,1-difluoroethyl)pyrimidin-4-yl)amino)-5-methoxypyridin-2-yl)acetamide]
IC50 [1]: 10 to 100 nM | IC50 ([2]; IL-3 stimulation): ≥ 1000 nM | IC50 [3, 6]: ≤ 10 nM | IC50 ([4]; IL-6 stimulation): ≥ 1000 nM

COc1cnc(NC(C)=O)cc1Nc1cc(O[C@H]2C[C@H](OC)C2)nc(C(C)(F)F)n1 [Example 19, N-(4-((2-(1,1-difluoroethyl)-6-((1r,3r)-3-methoxycyclobutoxy)pyrimidin-4-yl)amino)-5-methoxypyridin-2-yl)acetamide]
IC50 [1]: 10 to 100 nM | IC50 ([2]; IL-3 stimulation): ≥ 1000 nM | IC50 [3, 6]: ≤ 10 nM | IC50 ([4]; IL-6 stimulation): ≥ 1000 nM

CCc1cc(Nc2cc(NC(C)=O)ncc2OCCOC)nc(C(C)(F)F)n1 [Example 20, N-(4-((2-(1,1-difluoroethyl)-6-ethylpyrimidin-4-yl)amino)-5-(2-methoxyethoxy)pyridin-2-yl)acetamide]
IC50 [1]: ≤ 10 nM | IC50 ([2]; IL-3 stimulation): ≥ 1000 nM | IC50 [3, 6]: ≤ 10 nM | IC50 ([4]; IL-6 stimulation): ≥ 1000 nM

COCCOc1cnc(NC(C)=O)cc1Nc1cc(OC)nc(C(C)(F)F)n1 [Example 21, N-(4-((2-(1,1-difluoroethyl)-6-methoxypyrimidin-4-yl)amino)-5-(2-methoxyethoxy)pyridin-2-yl)acetamide]
IC50 [1]: 10 to 100 nM | IC50 ([2]; IL-3 stimulation): ≥ 1000 nM | IC50 [3, 6]: ≤ 10 nM | IC50 ([4]; IL-6 stimulation): ≥ 1000 nM

CC(=O)Nc1cc(Nc2cc(C)nc(C(C)(F)F)n2)c(OCC(C)(C)F)cn1 [Example 119, N-(4-((2-(1,1-difluoroethyl)-6-methylpyrimidin-4-yl)amino)-5-(2-fluoro-2-methylpropoxy)pyridin-2-yl)acetamide]
IC50 [1]: 10 to 100 nM | IC50 ([2]; IL-3 stimulation): ≥ 1000 nM | IC50 ([4]; IL-6 stimulation): ≥ 1000 nM

CC(=O)Nc1cc(Nc2cc(C)nc(C(C)(F)F)n2)c(OCC2COCCO2)cn1 (stereo not shown) [Example 135, N-(5-((1,4-dioxan-2-yl)methoxy)-4-((2-(1,1-difluoroethyl)-6-methylpyrimidin-4-yl)amino)pyridin-2-yl)acetamide]
IC50 [1]: ≤ 10 nM | IC50 ([2]; IL-3 stimulation): ≥ 1000 nM | IC50 ([4]; IL-6 stimulation): ≥ 1000 nM

Cc1cc(Nc2cc(NC(N)=O)ncc2-c2ccc(F)cn2)nc(C(C)(F)F)n1 [Example 291, 1-(4′-((2-(1,1-difluoroethyl)-6-methylpyrimidin-4-yl)amino)-5-fluoro-[2,3′-bipyridin]-6′-yl)urea]
IC50 [1]: ≤ 10 nM | IC50 ([2]; IL-3 stimulation): ≥ 1000 nM | IC50 ([4]; IL-6 stimulation): 100 to 1000 nM

Cc1cc(Nc2cc(NC(N)=O)ncc2-c2ccc(C#N)cn2)nc(C(C)(F)F)n1 [Example 292, 1-(5-cyano-4′-((2-(1,1-difluoroethyl)-6-methylpyrimidin-4-yl)amino)-[2,3′-bipyridin]-6′-yl)urea]
IC50 [1]: ≤ 10 nM | IC50 ([2]; IL-3 stimulation): ≥ 1000 nM | IC50 ([4]; IL-6 stimulation): ≥ 1000 nM
